Experimental data as given in US8017654B2, “Combination cancer therapy with bis(thiohydrazide) amide compounds” (priority 2005, dated 2011).

What was measured:
[1] = Phase I trial, pharmacokinetics in plasma by LC/MS during cycle 1
Experimental: Pharmacokinetic (PK) studies were performed during cycle 1 using liquid chromatography/mass spectrometry (LC/MS) to measure both compounds in plasma. Heat shock protein 70 (Hsp70) was measured in plasma before and after treatment.

[2] = co-administered with Compound (1) 44-525 mg/m2

In the case of `CN(NC(=O)CC(=O)NN(C)C(=S)c1ccccc1)C(=S)c1ccccc1` [Compound (1)], the “serious effects specifically attributable to Compound (1)” value (35 patients, 8 dose levels, with paclitaxel) was “No serious effects” and the PK linearity ([1]; Compound (1) 44-525 mg/m2, unaffected by paclitaxel dose) was “linear PK”.
For `CC(=O)O[C@H]1C(=O)[C@@]2(C)[C@H]([C@H](OC(=O)c3ccccc3)[C@]3(O)C[C@H](OC(=O)[C@H](O)[C@@H](NC(=O)c4ccccc4)c4ccccc4)C(C)=C1C3(C)C)[C@]1(OC(C)=O)CO[C@@H]1C[C@@H]2O` [Paclitaxel, paclitaxel], the “Paclitaxel dose limiting toxicities” value (in vivo) was “occurred in a single patient in each of the top three dose levels”, the “Paclitaxel clearance, trend with Compound (1) dose” value [1, 2] was “significant trend toward decreasing clearance” and the “Paclitaxel terminal phase half-life, effect of Compound (1) dose” value [1, 2] was “without affecting the terminal phase half-life”.
